Measured values as given in patent US8569298B2, “Pyridine compounds” (Astrazeneca AB, priority 2008, dated 2013).

Biological target: T1, FAK enzyme (6 His tagged kinase domain, GenBank NP—722560) (Homo sapiens, UniProt Q05397)
T1 construct: 6 His; made in house; host or cells: insect cell culture infected with baculovirus
Assay: In vitro enzyme assay (a): sandwich ELISA of FAK tyrosine kinase activity on polyGAT peptide, TMB colorimetric endpoint
Format: biochemical
Details: in vitro Enzyme Assay test (a); ATP at Km; geometric mean of n > 1 measurements, values marked * tested once
Method: (a) In Vitro Enzyme Assay
A sandwich ELISA assay with a 3,3′,5,5′-tetramethyl benzidine (TMB) colorimetric endpoint was used in order to determine the level of effect of selected compounds on inhibition of FAK protein tyrosine kinase enzyme activity. A synthetic tyrosine containing peptide is coated onto a plastic surface, the level of phosphorylation of these tyrosine residues by the kinase enzyme in the presence of inhibitors is measured using an antibody that binds specifically to phosphorylated tyrosine residues. The amount of antibody bound to substrate is proportional to the level of enzyme catalysis.
Assay Protocol to Identify Inhibitors of Focal Adhesion Kinase (FAK).
A PlateMate Plus™ 384 automated liquid handling unit with a 100 μl disposable tip head was used to make all the non compound reagent additions and a Tecan 384PW plate washer with 384 head was used for all wash steps. Initially Matrix 384 well polystyrene plates (Cat #:4311) were coated with 40 μl/well of a 0.0375 mg/ml solution of synthetic poly peptide (polyGAT, Sigma Cat #:P3899) dissolved in phosphate buffered saline (PBS). Plates were stored overnight at 4° C. Immediately before use the coating solution was aspirated out and each well washed with 2×100 μl of PBS+0.05% Tween 20. To remove surplus phosphate, the wells were then washed with 2×100 μl 50 mM HEPES buffer pH 7.4. Plates were blotted dry before the addition of compounds. Compounds were tested over a 12 point dose range, a Labcyte Echo 550 was used to dispense compounds in nl volumes and back fill with DMSO. The final concentration of compound in the assay was dependent on the starting concentration of compound. For a 10 mM stock compound the final assay dose ranged from 100 μM down to […]. Control wells containing 120 nl DMSO (Max) or 120 nl of 10 mM staurosporine (LC Laboratories, Boston, USA Cat #: S-9300) (Min) were included in each plate. 10 ul of 5% dimethyl sulfoxide v/v (DMSO, Fisher Scientific) was added to each well immediately prior to addition of 10 μl of a co-factor solution containing 80 mM MgCl2 (Sigma Cat #: M1028); 80 mM MnCl2 (Sigma Cat #: M1787); ATP at a concentration calculated to enable the initial reaction velocity to progress at half the maximum velocity (Km for ATP) (Sigma Cat #:A7699). A final addition of 20 μl of enzyme solution containing 100 mM HEPES pH7.4; 0.2 mM sodium vanadate (Sigma Cat #:S6508); 0.2 g/l bovine serum albumin (BSA, Sigma Cat #: A7888); 0.2 mM dithioreitol (Sigma Cat #: 5545); 0.1% Triton X100 (Sigma Cat #:X100); FAK enzyme (20 μl/ml) was made to each well to start the assay running FAK enzyme was generated from an insect culture infected with baculo virus containing the DNA sequence encoding the 6 His tagged kinase domain (GenBank NP_722560).
Plates were left at room temperature for 25 minutes before 10 μl of 500 mM ethylenediaminetetraacetic acid (EDTA) was added to stop the assay and the wells were immediately washed 3×100 μl with PBS+0.05% Tween 20. A 4G10 antibody (Millipore Cat #: 16-105; 16-184) with a directly conjugated horse radish peroxidase (HRP) was used to detect the phosphorylation of the substrate by the FAK. 40 μl of PBS+0.05% Tween 20 containing 0.5% BSA and 0.1 μl/ml antibody was added to each well and left for 1 hour at room temperature to allow the antibody to bind. After this period the wells were again washed with 3×100 μl of PBS+0.05% Tween 20. TMB (Sigma Cat #: T2885) was used as a substrate for the HRP. Phosphate-citrate buffer was made up using capsules provided by Sigma (Cat #: P4922) following the manufacturers guidelines. TMB was dissolved at a concentration of 1 mg/ml in DMSO and let down to a final concentration of 0.05 mg/ml with the phosphor-citrate buffer. 40 μl of the TMB solution was added to each assay well and left for 30 minutes for the blue colour to develop. […]

T1 sequence (Q05397 422-680 limits assumed): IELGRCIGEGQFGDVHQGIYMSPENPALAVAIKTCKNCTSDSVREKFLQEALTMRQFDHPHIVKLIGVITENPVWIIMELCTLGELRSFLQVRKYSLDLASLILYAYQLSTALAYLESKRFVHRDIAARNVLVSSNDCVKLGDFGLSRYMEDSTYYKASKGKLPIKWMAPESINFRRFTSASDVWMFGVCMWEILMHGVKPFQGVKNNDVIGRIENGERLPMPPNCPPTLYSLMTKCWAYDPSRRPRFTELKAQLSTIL

Structure (SMILES)	IC50
Cc1cc(Nc2cc(Nc3cccc4c3C(=O)N(C)CC4)c(Cl)cn2)nn1C [Example 3.30, 8-[[5-chloro-2-[(1,5-dimethylpyrazol-3-yl)amino]-4-pyridyl]amino]-2-methyl-3,4-dihydroisoquinolin-1-one]	59 nM
CC(=O)N1CCC(n2cc(Nc3cc(Nc4cccc5c4C(=O)N(C)CC5)c(Cl)cn3)cn2)CC1 [Example 3.31, 8-[[2-[[1-(1-acetyl-4-piperidyl)pyrazol-4-yl]amino]-5-chloro-4-pyridyl]amino]-2-methyl-3,4-dihydroisoquinolin-1-one]	171 nM
Cc1nn(C)cc1Nc1cc(Nc2cccc3c2C(=O)N(C)CC3)c(Cl)cn1 [Example 3.32, 8-[[5-chloro-2-[(1,3-dimethylpyrazol-4-yl)amino]-4-pyridyl]amino]-2-methyl-3,4-dihydroisoquinolin-1-one]	9 nM
CN1CCc2cccc(Nc3cc(Nc4cnn(C5CCNCC5)c4)ncc3Cl)c2C1=O [Example 3.33, 8-[[5-Chloro-2-[[1-(4-piperidyl)pyrazol-4-yl]amino]-4-pyridyl]amino]-2-methyl-3,4-dihydroisoquinolin-1-one]	191 nM
CN1CCc2cccc(Nc3cc(Nc4cnn(C5CCCNC5)c4)ncc3Cl)c2C1=O (centres unmarked) [Example 3.34, 8-[[5-chloro-2-[[1-(3-piperidyl)pyrazol-4-yl]amino]-4-pyridyl]amino]-2-methyl-3,4-dihydroisoquinolin-1-one]	160 nM
Cc1nn(C)cc1Nc1cc(Nc2cccc3c2C(=O)N(C)C3)c(Cl)cn1 [Example 3.35, 7-[[5-Chloro-2-[(1,3-dimethylpyrazol-4-yl)amino]-4-pyridyl]amino]-2-methyl-isoindolin-1-one]	36 nM
CNC(=O)c1cc(N2CCN(C)CC2)ccc1Nc1cc(Nc2cc(C)n(C)n2)ncc1Cl [Example 3.36, 2-[[5-Chloro-2-[(1,5-dimethylpyrazol-3-yl)amino]-4-pyridyl]amino]-N-methyl-5-(4-methylpiperazin-1-yl)benzamide]	249 nM
CNC(=O)c1cc(N2CCN(C)CC2)ccc1Nc1cc(Nc2cn(C)nc2C)ncc1Cl [Example 3.37, 2-[[5-chloro-2-[(1,3-dimethylpyrazol-4-yl)amino]-4-pyridyl]amino]-N-methyl-5-(4-methylpiperazin-1-yl)benzamide]	1050 nM
Cc1nn(C)cc1Nc1cc(Nc2ccc(N3CCN(C(C)C)CC3)c3c2C(=O)N(C)C3)c(Cl)cn1 [Example 3.38, 7-[[5-Chloro-2-[(1,3-dimethylpyrazol-4-yl)amino]-4-pyridyl]amino]-4-(4-isopropylpiperazin-1-yl)-2-methyl-isoindolin-1-one]	36 nM
CNC(=O)c1cccc(F)c1Nc1cc(Nc2cn(C)nc2C)ncc1Cl [Example 3.39, 2-[[5-Chloro-2-[(1,3-dimethylpyrazol-4-yl)amino]-4-pyridyl]amino]-3-fluoro-N-methyl-benzamide]	55 nM
CNC(=O)c1c(F)cccc1Nc1cc(Nc2cn(C)nc2C)ncc1Cl [Example 3.40, 2-[[5-Chloro-2-[(1,3-dimethylpyrazol-4-yl)amino]-4-pyridyl]amino]-6-fluoro-N-methyl-benzamide]	122 nM
CNC(=O)c1cc(F)ccc1Nc1cc(Nc2cn(C)nc2C)ncc1Cl [Example 3.41, 2-[[5-chloro-2-[(1,3-dimethylpyrazol-4-yl)amino]-4-pyridyl]amino]-5-fluoro-N-methyl-benzamide]	87 nM
CNC(=O)c1ccc(F)cc1Nc1cc(Nc2cn(C)nc2C)ncc1Cl [Example 3.42, 2-[[5-chloro-2-[(1,3-dimethylpyrazol-4-yl)amino]-4-pyridyl]amino]-4-fluoro-N-methyl-benzamide]	5 nM

Second part, the compound after the results:

IC50	Structure (SMILES)
1510 nM	CNC(=O)c1ccccc1Nc1cc(Nc2cnn(CC(=O)N3CCCC3)c2)ncc1F [Example 4.01, 2-[[5-Fluoro-2-[[1-(2-oxo-2-pyrrolidin-1-yl-ethyl)pyrazol-4-yl]amino]-4-pyridyl]amino]-N-methyl-benzamide]
1320 nM	CNC(=O)c1ccccc1Nc1cc(Nc2cnn(CC(=O)N(C)C3CCN(C)CC3)c2)ncc1F [Example 4.02, 2-[[5-fluoro-2-[[1-[2-[methyl-(1-methyl-4-piperidyl)amino]-2-oxo-ethyl]pyrazol-4-yl]amino]-4-pyridyl]amino]-N-methyl-benzamide]
2120 nM	CNC(=O)c1ccccc1Nc1cc(Nc2cnn(CC(=O)N(C)CCOC)c2)ncc1F [Example 4.03]
967 nM	CNC(=O)c1ccccc1Nc1cc(Nc2cnn(CC(=O)N3CCCN(C)CC3)c2)ncc1F [Example 4.04, 2-[[5-fluoro-2-[[1-[2-(4-methyl-1,4-diazepan-1-yl)-2-oxo-ethyl]pyrazol-4-yl]amino]-4-pyridyl]amino]-N-methyl-benzamide]
1300 nM	CNC(=O)c1ccccc1Nc1cc(Nc2cnn(CC(=O)N3CCOCC3)c2)ncc1F [Example 4.05, 2-[[5-fluoro-2-[[1-(2-morpholino-2-oxo-ethyl)pyrazol-4-yl]amino]-4-pyridyl]amino]-N-methyl-benzamide]
1050 nM	CNC(=O)c1ccccc1Nc1cc(Nc2cnn(CC(=O)N3CCC(N(C)C)CC3)c2)ncc1F [Example 4.06, 2-[[2-[[1-[2-(4-dimethylamino-1-piperidyl)-2-oxo-ethyl]pyrazol-4-yl]amino]-5-fluoro-4-pyridyl]amino]-N-methyl-benzamide]
577 nM	CNC(=O)c1ccccc1Nc1cc(Nc2cnn(CC(=O)N3CCN(C)CC3)c2)ncc1F [Example 4.07, 2-[[5-fluoro-2-[[1-[2-(4-methylpiperazin-1-yl)-2-oxo-ethyl]pyrazol-4-yl]amino]-4-pyridyl]amino]-N-methyl-benzamide]
2190 nM	CNC(=O)c1ccccc1Nc1cc(Nc2cnn(C)c2)ncc1F [Example 4.08, 2-[[5-Fluoro-2-[(1-methylpyrazol-4-yl)amino]-4-pyridyl]amino]-N-methyl-benzamide]
3380 nM	CNC(=O)c1ccccc1Nc1cc(Nc2cnn(C3CCOCC3)c2)ncc1F [Example 4.09, 2-[[5-fluoro-2-[(1-tetrahydropyran-4-ylpyrazol-4-yl)amino]-4-pyridyl]amino]-N-methyl-benzamide]
1770 nM	CNC(=O)c1ccccc1Nc1cc(Nc2cn(C)nc2C)ncc1F [Example 4.10, 2-[[2-[(1,3-dimethylpyrazol-4-yl)amino]-5-fluoro-4-pyridyl]amino]-N-methyl-benzamide]
2080 nM	CNC(=O)c1ccccc1Nc1cc(Nc2cnn(C3CCN(C)CC3)c2)ncc1F [Example 4.11, 2-[[5-fluoro-2-[[1-(1-methyl-4-piperidyl)pyrazol-4-yl]amino]-4-pyridyl]amino]-N-methyl-benzamide]
121 nM	Cc1nn(C)cc1Nc1cc(Nc2cccc3c2C(=O)N(C)CC3)c(F)cn1 [Example 4.12, 8-[[2-[(1,3-Dimethylpyrazol-4-yl)amino]-5-fluoro-4-pyridyl]amino]-2-methyl-3,4-dihydroisoquinolin-1-one]
1030 nM	CN1CCc2cccc(Nc3cc(Nc4cnn([C@@H]5CCC(=O)NC5)c4)ncc3F)c2C1=O [Example 4.13, 8-[[5-fluoro-2-[[1-[(3R)-6-oxopiperidin-3-yl]pyrazol-4-yl]amino]pyridin-4-yl]amino]-2-methyl-3,4-dihydroisoquinolin-1-one]
